# Assay results published in ChEMBL document CHEMBL1140192, “Sorocenols G and H, anti-MRSA oxygen heterocyclic Diels-Alder-type adducts from Sorocea muriculata roots” (J Nat Prod, 2008).
# Active and inactive are the calls of the source. The rule behind the calls is not given here.
# Legend:
# Format in all cases: functional, organism-based
# [1] = system: Candida albicans; assay: Antifungal activity against Candida albicans ATCC 90028 after 18 to 24 hrs
# [2] = system: Cryptococcus neoformans; assay: Antifungal activity against Cryptococcus neoformans ATCC 90113 after 68 to 72 hrs
# [3] = system: Aspergillus fumigatus; assay: Antifungal activity against Aspergillus fumigatus ATCC 90906 after 68 to 72 hrs
# [4] = system: Staphylococcus aureus; assay: Antibacterial activity against methicillin-resistant Staphylococcus aureus ATCC 43300 after 18 to 24 hrs
# [5] = system: Escherichia coli; assay: Antibacterial activity against Escherichia coli ATCC 35218 at 20 ug/mL after 18 to 24 hrs
# [6] = system: Pseudomonas aeruginosa; assay: Antibacterial activity against Pseudomonas aeruginosa ATCC 27853 at 20 ug/mL after 18 to 24 hrs
# [7] = system: Mycobacterium intracellulare; assay: Antibacterial activity against Mycobacterium intracellular ATCC 23068 at 20 ug/mL after 68 to 72 hrs
Compound,IC50 [1] [µM],MFC [1] [µM],MIC [1] [µM],IC50 [2] [µM],MFC [2] [µM],MIC [2] [µM],IC50 [3] [µM],MFC [3] [µM],MIC [3] [µM],Activity [4],MIC [4] [µM],Activity [5],IC50 [4] [µM],MBC [4] [µM],Activity [1],Activity [2],Activity [6],Activity [3],Activity [7]
C[C@@H]1[C@H](O)[C@@H](C)/C=C/C=C/C=C/C=C/C=C/C=C/C=C/[C@H](O[C@@H]2O[C@H](C)[C@@H](O)[C@H](N)[C@@H]2O)C[C@@H]2O[C@](O)(C[C@@H](O)C[C@@H](O)[C@H](O)CC[C@@H](O)C[C@@H](O)CC(=O)O[C@H]1C)C[C@H](O)[C@H]2C(=O)O [AMPHOTERICIN B],0.3,1.4,0.7,0.9,2.5,1.4,1.6,2.7,2.7,,,,,,,,,,
O=C(O)c1cn(C2CC2)c2cc(N3CCNCC3)c(F)cc2c1=O [CIPROFLOXACIN],,,,,,,,,,inactive,0.8,,,,,,,,
CC1=C[C@@H]2c3c(O)cc(-c4cc5ccc(O)cc5o4)cc3O[C@]3(c4ccc(O)c5c4OC(C)(C)C=C5)Oc4cc(O)ccc4[C@H](C1)[C@@H]23 [SOROCENOL G],,,,,,,,,,,4,inactive,1.5,31.8,Active,Active,inactive,inactive,inactive
CC(C)=CCc1c(O)ccc(C(=O)[C@H]2[C@H](c3c(O)cc(-c4cc5ccc(O)cc5o4)cc3O)C=C(C)C[C@H]2c2ccc(O)cc2O)c1O [SOROCENOL H],5.4,30.8,15.4,5.4,7.7,7.7,10,30.8,15.4,,1.9,inactive,0.5,30.8,,,inactive,,inactive
